This note sets out measurements from patent US6057351A, “Compounds of the 3-aryl 2,4 dioxo oxazolidine family and use thereof in cosmetic and pharmaceuticals” (Societe L'Oreal S.A., priority 1996, dated 2000).

The target of one test is T1, androgen receiver (Rattus norvegicus, UniProt P15207).
T1 sequence (P15207 1-902): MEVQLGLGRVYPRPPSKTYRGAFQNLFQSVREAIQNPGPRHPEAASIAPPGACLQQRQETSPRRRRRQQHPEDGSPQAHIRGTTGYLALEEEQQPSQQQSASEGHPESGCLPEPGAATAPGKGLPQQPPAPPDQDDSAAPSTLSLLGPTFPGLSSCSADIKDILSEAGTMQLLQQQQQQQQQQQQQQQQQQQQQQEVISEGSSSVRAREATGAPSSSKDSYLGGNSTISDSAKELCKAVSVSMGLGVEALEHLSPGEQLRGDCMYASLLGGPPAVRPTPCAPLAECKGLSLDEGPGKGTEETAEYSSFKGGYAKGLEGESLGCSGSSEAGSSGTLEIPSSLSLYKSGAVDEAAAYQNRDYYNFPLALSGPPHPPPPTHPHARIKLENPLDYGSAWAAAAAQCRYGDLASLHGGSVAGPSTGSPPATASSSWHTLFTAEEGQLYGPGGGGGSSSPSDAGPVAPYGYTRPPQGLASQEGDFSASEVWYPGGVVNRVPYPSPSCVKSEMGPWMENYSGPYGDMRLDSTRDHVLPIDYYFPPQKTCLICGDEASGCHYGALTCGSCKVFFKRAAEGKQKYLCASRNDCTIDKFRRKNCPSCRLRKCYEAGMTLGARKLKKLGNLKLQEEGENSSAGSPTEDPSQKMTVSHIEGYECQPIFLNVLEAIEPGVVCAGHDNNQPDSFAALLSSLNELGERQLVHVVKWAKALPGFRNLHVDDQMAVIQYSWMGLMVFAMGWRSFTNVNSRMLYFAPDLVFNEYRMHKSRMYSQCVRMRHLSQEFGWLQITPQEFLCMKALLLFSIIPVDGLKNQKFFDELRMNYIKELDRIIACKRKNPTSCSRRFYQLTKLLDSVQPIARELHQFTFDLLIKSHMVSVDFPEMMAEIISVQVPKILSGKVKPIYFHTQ
Briefly: Affinity for the androgen receiver (Schilling and Liao method), inhibition of testosterone fixation. The class given is binding. The method, then: Measuring the affinity of the 4-(5-methyl-2,4-dioxo-5-trifluoromethyl)-oxazolidin-3-yp)-2-trifluoromethylbenzonitrile for the androgen receiver.
These measurements of receiving affinity for the androgen receiver are executed according to the Schilling and Liao method, described in "The Prostate", 1984, 5.p. 581-588.
The compound is tested at several concentrations. During the experiment, the reference molecule(mibolerone) is tested at the same time at 8 concentrations in order to validate the experiment.
The results are expressed in % of inhibition of the fixation of the testosterone on its receiver. The internal reference (mibolerone) inhibits up to 50% of this fixation at a concentration of 4.3 nM.

Another test relates to thoracic aorta rings. Description: "Potassic canal opener" type activity: in vitro relaxing power on thoracic aorta rings contracted by KCl 20 mM. The class given is cell-based. The method, then: Measurement of the "potassic canal opener" type activity of the 4-(5-methyl-2,4-dioxo-5-trifluoromethyl)-oxazolidin-3-yl)-2-trifluoromethylbenzonitrile by measuring in vitro the relaxing power of the molecules of thoracic aorta rings.
The experiments are carried out according to the Newgreen et al (Br. J. Pharmacol., 100, 1990, p. 605-613), Bray et al (Arch. Pharmacol., 344, 1991, p. 351-359) and Wickerden et al (Br. J. Pharmacol., 103, 1991, 1148-1152) methods.
After placing the tissues in the isolated organ tanks, they (smooth aortic muscles) are subjected to an initial tension of 2 g.
After a period of equilibration, the tissues are exposed to a potassium chloride solution (KCl, at 20 mM) in order to obtain a sustained contractile response. After stabilization of this contractile response, the relaxing activity (of the potassic canal opener type) of the molecules to be tested is evaluated in response doses.
During the experiment, two reference molecules are used: cromakalim and Minoxidil.
Results expressed in % of inhibition of the contraction provoked by the KCl at 20 mM.

As to `C[C@@H]1CC2=CC(=O)CC[C@@H]2[C@H]2CC[C@@]3(C)[C@@H](CC[C@]3(C)O)[C@@H]21` [mibolerone], on androgen receiver, inhibition was half-maximal at 4.3 nM (IC50).
With `CC1(C(F)(F)F)OC(=O)N(c2ccc(C#N)c(C(F)(F)F)c2)C1=O` (centres unmarked) [4-(5-methyl-2,4-dioxo-5-trifluoromethyl)-oxazolidin-3-yl)-2-trifluoromethylbenzonitrile], the entries for the “% of inhibition of the contraction provoked by the KCl at 20 mM” value (from here on “% of inhibition … at 20 mM”) in the test with thoracic aorta rings (compound at 0.1 μM), in the test with thoracic aorta rings (compound at 1 μM) and in the test with thoracic aorta rings (compound at 10 μM) were 12%, 69% and 95%, respectively. Moreover, the “activity profile (potassic canal opener / anti-androgen)” value in the test on thoracic aorta rings (conclusion drawn from the results of Examples 2 and 3) is “mixed activity, with a preferred activity for the K* Agonist facet”. For the same molecule, the inhibition (commonly the relative decrease from the control value, in per cent) at 0.1 µM at androgen receiver (compound at 0.1 μM, read-out: % of inhibition of the fixation of the testosterone on its receiver) stood at 2%. In addition, the inhibition at 1 µM at androgen receiver (compound at 1 μM, read-out: % of inhibition of the fixation of the testosterone on its receiver) is 17%. For the same molecule, the inhibition at 10 µM at androgen receiver (compound at 10 μM, read-out: % of inhibition of the fixation of the testosterone on its receiver) turned out to be 56%.
Regarding `CC1(C)Oc2ccc(C#N)cc2C(N2CCCC2=O)C1O` (centres unmarked) [Cromakalim, cromakalim], the “% of inhibition … at 20 mM” value in the test with thoracic aorta rings (compound at 0.1 μM) came to 46%; with thoracic aorta rings (compound at 1 μM) it was 86%; in the test on thoracic aorta rings (compound at 10 μM) it was 100%.
For `Nc1cc(N2CCCCC2)nc(N)[n+]1[O-]` [Minoxidil, 3-oxide pyrimidine 6-piperidino 2,4-diamino], the “% of inhibition … at 20 mM” value in the test on thoracic aorta rings (compound at 0.1 μM) was 25%; with thoracic aorta rings (compound at 1 μM) it was 65%; in the test on thoracic aorta rings (compound at 10 μM), 95%.
